Data taken from publication PMC12848717, “Discovery of Encrypted Peptides in a Human Matrix Metallopeptidase” (JACS Au, 2025).
Like-named read-outs stand apart in the source and are kept apart here. Ends that are not written are not given here.

Legend:
[1] = test system: Human coronavirus 229E (HCoV-229E); settings: plaque reduction
[2] = test system: A. baumannii ATCC 19606; settings: for MIC after treatment 12: ATCC 19606; for MIC after treatment 1 / MIC after treatment 2 / MIC after treatment 3 / MIC after treatment 4 / MIC after treatment 5 / MIC after treatment 6 / MIC after treatment 7 / MIC after treatment 8 / MIC after treatment 9 / MIC after treatment 10 / MIC after treatment 11 / MIC after treatment 13 / MIC after treatment 14 / MIC after treatment 15 / MIC after treatment 16 / MIC after treatment 17 / MIC after treatment 18 / MIC after treatment 19 / MIC after treatment 20 / MIC after treatment 21: Table S3; for MIC after treatment 1: serial exposure at MIC/2, treatment 1 of 21; for MIC after treatment 2: serial exposure at MIC/2, treatment 2 of 21; for MIC after treatment 3: serial exposure at MIC/2, treatment 3 of 21; for MIC after treatment 4: serial exposure at MIC/2, treatment 4 of 21; for MIC after treatment 5: serial exposure at MIC/2, treatment 5 of 21; for MIC after treatment 6: serial exposure at MIC/2, treatment 6 of 21; for MIC after treatment 7: serial exposure at MIC/2, treatment 7 of 21; for MIC after treatment 8: serial exposure at MIC/2, treatment 8 of 21; for MIC after treatment 9: serial exposure at MIC/2, treatment 9 of 21; for MIC after treatment 10: serial exposure at MIC/2, treatment 10 of 21; for MIC after treatment 11: serial exposure at MIC/2, treatment 11 of 21; for MIC after treatment 13: serial exposure at MIC/2, treatment 13 of 21; for MIC after treatment 14: serial exposure at MIC/2, treatment 14 of 21; for MIC after treatment 15: serial exposure at MIC/2, treatment 15 of 21; for MIC after treatment 16: serial exposure at MIC/2, treatment 16 of 21; for MIC after treatment 17: serial exposure at MIC/2, treatment 17 of 21; for MIC after treatment 18: serial exposure at MIC/2, treatment 18 of 21; for MIC after treatment 19: serial exposure at MIC/2, treatment 19 of 21; for MIC after treatment 20: serial exposure at MIC/2, treatment 20 of 21; for MIC after treatment 21: serial exposure at MIC/2, treatment 21 of 21
[3] = test system: S. epidermidis ATCC 35984; settings: for MIC after treatment 12: ATCC 35984; for MIC after treatment 1 / MIC after treatment 2 / MIC after treatment 3 / MIC after treatment 4 / MIC after treatment 5 / MIC after treatment 6 / MIC after treatment 7 / MIC after treatment 8 / MIC after treatment 9 / MIC after treatment 10 / MIC after treatment 11 / MIC after treatment 13 / MIC after treatment 14 / MIC after treatment 15 / MIC after treatment 16 / MIC after treatment 17 / MIC after treatment 18 / MIC after treatment 19 / MIC after treatment 20 / MIC after treatment 21: Table S4; for MIC after treatment 1: serial exposure at MIC/2, treatment 1 of 21; for MIC after treatment 2: serial exposure at MIC/2, treatment 2 of 21; for MIC after treatment 3: serial exposure at MIC/2, treatment 3 of 21; for MIC after treatment 4: serial exposure at MIC/2, treatment 4 of 21; for MIC after treatment 5: serial exposure at MIC/2, treatment 5 of 21; for MIC after treatment 6: serial exposure at MIC/2, treatment 6 of 21; for MIC after treatment 7: serial exposure at MIC/2, treatment 7 of 21; for MIC after treatment 8: serial exposure at MIC/2, treatment 8 of 21; for MIC after treatment 9: serial exposure at MIC/2, treatment 9 of 21; for MIC after treatment 10: serial exposure at MIC/2, treatment 10 of 21; for MIC after treatment 11: serial exposure at MIC/2, treatment 11 of 21; for MIC after treatment 13: serial exposure at MIC/2, treatment 13 of 21; for MIC after treatment 14: serial exposure at MIC/2, treatment 14 of 21; for MIC after treatment 15: serial exposure at MIC/2, treatment 15 of 21; for MIC after treatment 16: serial exposure at MIC/2, treatment 16 of 21; for MIC after treatment 17: serial exposure at MIC/2, treatment 17 of 21; for MIC after treatment 18: serial exposure at MIC/2, treatment 18 of 21; for MIC after treatment 19: serial exposure at MIC/2, treatment 19 of 21; for MIC after treatment 20: serial exposure at MIC/2, treatment 20 of 21; for MIC after treatment 21: serial exposure at MIC/2, treatment 21 of 21
[4] = read-out: IC50, co-treatment, Vero-76 cells exposed to virus and peptide simultaneously, 1 h, 37 °C
[5] = read-out: IC50, virus pretreatment, virus incubated with peptide 1 h, 37 °C before infection

## PYLLLGRWRKKHLTFRILNL [r(P)YLL19]
[1]; [4]
  IC50: 12.5 µM
[1]; [5]
  IC50: 0.56 µM
[2]
  MIC after treatment 12: 5 µM
  MIC after treatment 1: 5 µM
  MIC after treatment 2: 5 µM
  MIC after treatment 3: 5 µM
  MIC after treatment 4: 5 µM
  MIC after treatment 5: 5 µM
  MIC after treatment 6: 5 µM
  MIC after treatment 7: 5 µM
  MIC after treatment 8: 5 µM
  MIC after treatment 9: 5 µM
  MIC after treatment 10: 5 µM
  MIC after treatment 11: 5 µM
  MIC after treatment 13: 5 µM
  MIC after treatment 14: 5 µM
  MIC after treatment 15: 5 µM
  MIC after treatment 16: 5 µM
  MIC after treatment 17: 5 µM
  MIC after treatment 18: 5 µM
  MIC after treatment 19: 5 µM
  MIC after treatment 20: 5 µM
  MIC after treatment 21: 5 µM
[3]
  MIC after treatment 12: 5 µM
  MIC after treatment 1: 5 µM
  MIC after treatment 2: 5 µM
  MIC after treatment 3: 5 µM
  MIC after treatment 4: 5 µM
  MIC after treatment 5: 5 µM
  MIC after treatment 6: 5 µM
  MIC after treatment 7: 5 µM
  MIC after treatment 8: 5 µM
  MIC after treatment 9: 5 µM
  MIC after treatment 10: 5 µM
  MIC after treatment 11: 5 µM
  MIC after treatment 13: 5 µM
  MIC after treatment 14: 5 µM
  MIC after treatment 15: 5 µM
  MIC after treatment 16: 5 µM
  MIC after treatment 17: 5 µM
  MIC after treatment 18: 5 µM
  MIC after treatment 19: 5 µM
  MIC after treatment 20: 5 µM
  MIC after treatment 21: 5 µM

## PYLLLGRWRKKHLTFRILNLPSTLPPHTARAALR [r(P)YLL33]
[1]; [4]
  IC50: 27.8 µM
[1]; [5]
  IC50: 16.4 µM
[2]
  MIC after treatment 12: 5 µM
  MIC after treatment 1: 5 µM
  MIC after treatment 2: 5 µM
  MIC after treatment 3: 5 µM
  MIC after treatment 4: 5 µM
  MIC after treatment 5: 5 µM
  MIC after treatment 6: 5 µM
  MIC after treatment 7: 5 µM
  MIC after treatment 8: 5 µM
  MIC after treatment 9: 5 µM
  MIC after treatment 10: 5 µM
  MIC after treatment 11: 5 µM
  MIC after treatment 13: 5 µM
  MIC after treatment 14: 5 µM
  MIC after treatment 15: 5 µM
  MIC after treatment 16: 5 µM
  MIC after treatment 17: 5 µM
  MIC after treatment 18: 5 µM
  MIC after treatment 19: 5 µM
  MIC after treatment 20: 5 µM
  MIC after treatment 21: 5 µM
[3]
  MIC after treatment 12: 5 µM
  MIC after treatment 1: 5 µM
  MIC after treatment 2: 5 µM
  MIC after treatment 3: 5 µM
  MIC after treatment 4: 5 µM
  MIC after treatment 5: 5 µM
  MIC after treatment 6: 5 µM
  MIC after treatment 7: 5 µM
  MIC after treatment 8: 5 µM
  MIC after treatment 9: 5 µM
  MIC after treatment 10: 5 µM
  MIC after treatment 11: 5 µM
  MIC after treatment 13: 5 µM
  MIC after treatment 14: 5 µM
  MIC after treatment 15: 5 µM
  MIC after treatment 16: 5 µM
  MIC after treatment 17: 5 µM
  MIC after treatment 18: 5 µM
  MIC after treatment 19: 5 µM
  MIC after treatment 20: 5 µM
  MIC after treatment 21: 5 µM
